In patent US20060030574A1, “Quinazoline derivatives useful for the treatment of peripheral arterial disease and as phosphodiesterase inhibitors” (Shire Holdings AG, priority 2004, published 2006):
“And” between values parts separate entries of the source, which are not always exact repeats. Identical values can stand only once. Like-named read-outs stand apart in the source and are kept apart here.

Experiments:
Phosphodiesterase II (h) = Phosphodiesterase II (h) (Homo sapiens, UniProt O00408); assay: Phosphodiesterase II (h) inhibition; type: biochemical
Phosphodiesterase I = molecular target: Phosphodiesterase I
Description: (§1) The profile of activity against a selection of phosphodiesterases (I-VI) was investigated. The methods used for the evaluation of the biological activity are all well known in the art. See for example, Weishaar et al; Biochem. Pharmacol., 35:787-800.

[1] = molecular target: Phosphodiesterase III (h) (Homo sapiens, UniProt Q14432); assay: Phosphodiesterase III (h) inhibition; type: biochemical
Phosphodiesterase IV (h) = Phosphodiesterase IV (h) inhibition; type: biochemical, human; conditions: 10 μM; percent inhibition of control activity, mean values, n = 2
Phosphodiesterase V (h) = Phosphodiesterase V (h) (Homo sapiens, UniProt O76074); assay: Phosphodiesterase V (h) inhibition; type: biochemical
Description: as §1

Phosphodiesterase VI = molecular target: T1, Phosphodiesterase VI (Bos taurus, UniProt P11541+P23439); assay: Phosphodiesterase VI inhibition; type: biochemical
T1 sequence (P11541 2-856): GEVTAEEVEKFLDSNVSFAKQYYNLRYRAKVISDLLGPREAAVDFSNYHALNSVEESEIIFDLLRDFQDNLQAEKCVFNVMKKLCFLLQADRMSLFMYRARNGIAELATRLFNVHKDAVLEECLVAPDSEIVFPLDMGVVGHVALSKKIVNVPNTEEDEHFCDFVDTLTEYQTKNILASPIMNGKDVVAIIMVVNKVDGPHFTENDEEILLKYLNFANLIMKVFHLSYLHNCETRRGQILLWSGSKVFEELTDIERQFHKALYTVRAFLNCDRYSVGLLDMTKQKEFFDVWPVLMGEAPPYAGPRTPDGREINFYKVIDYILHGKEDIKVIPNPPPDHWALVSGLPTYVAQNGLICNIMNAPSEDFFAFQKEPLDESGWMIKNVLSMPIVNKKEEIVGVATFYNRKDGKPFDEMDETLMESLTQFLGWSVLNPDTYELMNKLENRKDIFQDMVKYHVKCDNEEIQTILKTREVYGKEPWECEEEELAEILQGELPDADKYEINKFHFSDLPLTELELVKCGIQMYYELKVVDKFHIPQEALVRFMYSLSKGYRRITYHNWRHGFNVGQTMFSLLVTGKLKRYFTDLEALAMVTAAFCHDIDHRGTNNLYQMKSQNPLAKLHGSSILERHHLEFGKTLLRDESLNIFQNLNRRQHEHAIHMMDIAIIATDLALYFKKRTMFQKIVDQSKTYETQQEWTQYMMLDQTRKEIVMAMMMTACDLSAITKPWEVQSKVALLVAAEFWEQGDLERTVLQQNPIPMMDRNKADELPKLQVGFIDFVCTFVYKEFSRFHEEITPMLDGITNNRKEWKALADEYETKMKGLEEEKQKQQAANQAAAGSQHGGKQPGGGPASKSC
T1 sequence (P23439 2-850): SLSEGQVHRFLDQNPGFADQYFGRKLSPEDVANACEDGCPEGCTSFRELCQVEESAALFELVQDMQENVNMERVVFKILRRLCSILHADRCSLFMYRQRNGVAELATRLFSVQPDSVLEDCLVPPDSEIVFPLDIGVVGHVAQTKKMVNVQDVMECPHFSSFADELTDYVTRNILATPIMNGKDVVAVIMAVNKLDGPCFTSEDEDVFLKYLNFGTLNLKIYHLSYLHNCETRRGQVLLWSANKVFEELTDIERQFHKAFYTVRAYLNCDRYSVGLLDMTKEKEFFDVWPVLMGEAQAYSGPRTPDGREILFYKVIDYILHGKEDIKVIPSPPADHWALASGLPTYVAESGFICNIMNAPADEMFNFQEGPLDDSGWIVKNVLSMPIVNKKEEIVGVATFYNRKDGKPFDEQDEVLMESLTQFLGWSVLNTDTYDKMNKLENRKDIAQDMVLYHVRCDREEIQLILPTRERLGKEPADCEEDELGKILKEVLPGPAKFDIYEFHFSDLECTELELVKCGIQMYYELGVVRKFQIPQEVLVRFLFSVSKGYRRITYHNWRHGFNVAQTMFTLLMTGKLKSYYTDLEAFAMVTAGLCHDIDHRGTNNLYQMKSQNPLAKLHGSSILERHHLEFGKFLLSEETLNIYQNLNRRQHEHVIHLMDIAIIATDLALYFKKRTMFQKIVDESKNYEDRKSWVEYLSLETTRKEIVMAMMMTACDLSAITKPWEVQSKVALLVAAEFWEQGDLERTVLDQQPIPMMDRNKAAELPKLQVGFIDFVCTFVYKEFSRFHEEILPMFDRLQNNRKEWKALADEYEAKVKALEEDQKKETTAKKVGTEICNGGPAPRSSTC
T1 sequence (P04972 1-87 partner): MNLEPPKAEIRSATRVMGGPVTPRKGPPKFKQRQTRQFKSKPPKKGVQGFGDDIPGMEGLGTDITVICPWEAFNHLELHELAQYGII
Method: The IC50 value against PDEVI was determined.

[2] = Hill coefficient of the reference compound
[3] = Hill coefficient of the test compound

Phosphodiesterase III (h), sequence (Q14432 whole entry): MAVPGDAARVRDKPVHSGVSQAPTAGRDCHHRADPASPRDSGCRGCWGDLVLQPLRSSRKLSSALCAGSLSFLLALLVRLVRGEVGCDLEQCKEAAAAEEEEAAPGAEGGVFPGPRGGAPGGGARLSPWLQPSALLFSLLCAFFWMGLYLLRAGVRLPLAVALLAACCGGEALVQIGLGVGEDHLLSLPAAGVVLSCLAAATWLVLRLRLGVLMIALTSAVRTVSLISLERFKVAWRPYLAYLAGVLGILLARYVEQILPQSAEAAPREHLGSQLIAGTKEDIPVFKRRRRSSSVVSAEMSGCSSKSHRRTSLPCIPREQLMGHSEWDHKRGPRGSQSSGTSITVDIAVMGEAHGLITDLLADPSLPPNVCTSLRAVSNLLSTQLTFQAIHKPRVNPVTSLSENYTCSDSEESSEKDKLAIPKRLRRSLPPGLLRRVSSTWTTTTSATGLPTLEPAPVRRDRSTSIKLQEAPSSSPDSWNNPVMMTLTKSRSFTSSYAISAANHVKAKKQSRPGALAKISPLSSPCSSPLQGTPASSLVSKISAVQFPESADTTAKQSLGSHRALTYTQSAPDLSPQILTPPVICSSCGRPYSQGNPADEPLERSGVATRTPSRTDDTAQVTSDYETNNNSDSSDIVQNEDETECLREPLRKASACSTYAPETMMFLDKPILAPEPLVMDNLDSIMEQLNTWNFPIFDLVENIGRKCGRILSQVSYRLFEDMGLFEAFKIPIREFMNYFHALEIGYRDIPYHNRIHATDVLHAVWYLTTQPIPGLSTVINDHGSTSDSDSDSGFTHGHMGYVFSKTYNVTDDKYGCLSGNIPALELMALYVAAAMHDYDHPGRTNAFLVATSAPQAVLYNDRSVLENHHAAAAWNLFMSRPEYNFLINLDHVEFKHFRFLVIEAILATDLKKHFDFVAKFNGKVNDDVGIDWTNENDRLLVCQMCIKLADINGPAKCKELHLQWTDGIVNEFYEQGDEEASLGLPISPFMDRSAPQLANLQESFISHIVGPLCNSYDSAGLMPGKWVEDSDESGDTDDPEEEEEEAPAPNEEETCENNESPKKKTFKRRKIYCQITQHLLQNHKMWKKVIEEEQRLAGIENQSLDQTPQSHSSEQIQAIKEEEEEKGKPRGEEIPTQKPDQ
Phosphodiesterase II (h), sequence (O00408 whole entry): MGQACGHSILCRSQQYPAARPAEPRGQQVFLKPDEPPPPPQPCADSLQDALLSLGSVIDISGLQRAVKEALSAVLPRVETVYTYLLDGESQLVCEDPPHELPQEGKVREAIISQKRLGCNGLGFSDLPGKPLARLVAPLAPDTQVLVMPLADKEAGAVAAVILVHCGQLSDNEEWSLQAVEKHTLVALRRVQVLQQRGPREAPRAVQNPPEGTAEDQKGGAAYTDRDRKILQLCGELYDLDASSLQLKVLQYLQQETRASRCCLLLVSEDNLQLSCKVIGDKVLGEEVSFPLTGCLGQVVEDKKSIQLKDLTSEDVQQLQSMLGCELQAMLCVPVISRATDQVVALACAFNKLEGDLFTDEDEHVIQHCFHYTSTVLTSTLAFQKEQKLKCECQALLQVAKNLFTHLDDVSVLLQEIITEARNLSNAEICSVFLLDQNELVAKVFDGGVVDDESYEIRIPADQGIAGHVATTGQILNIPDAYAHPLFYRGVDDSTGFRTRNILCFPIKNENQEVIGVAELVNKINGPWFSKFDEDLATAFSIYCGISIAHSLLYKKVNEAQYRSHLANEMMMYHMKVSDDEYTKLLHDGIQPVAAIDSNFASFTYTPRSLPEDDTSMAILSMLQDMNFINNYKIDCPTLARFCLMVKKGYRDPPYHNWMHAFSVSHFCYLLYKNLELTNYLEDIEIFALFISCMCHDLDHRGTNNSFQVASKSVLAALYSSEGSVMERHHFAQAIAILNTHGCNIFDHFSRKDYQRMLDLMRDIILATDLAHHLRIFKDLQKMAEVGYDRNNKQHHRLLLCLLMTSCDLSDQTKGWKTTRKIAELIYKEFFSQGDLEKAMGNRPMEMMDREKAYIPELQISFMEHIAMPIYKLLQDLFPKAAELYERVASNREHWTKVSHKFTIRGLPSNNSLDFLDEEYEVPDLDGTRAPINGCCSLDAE

CCCCCC[C@@H]([C@@H](C)O)n1cnc2c(N)ncnc21 (racemic) [EHNA]
Reference compounds (nH) (Phosphodiesterase II (h); [2]): (0.7) | IC50 (Phosphodiesterase II (h); control value for the reference compound, read-out: Reference compounds IC50): 2600 nM

COCc1nc2c([nH]1)c(=O)n(C)c(=O)n2CC(C)C [8-methoxy-IBMX, reference compound]
IC50 (Phosphodiesterase I; read-out: Reference compounds IC50, control value for the reference compound): 2410 nM

O=C1NC2=Nc3ccc(Cl)c(Cl)c3CN2C1O (stereo not shown) [Compound #3, 6,7-dichloro-3-hydroxy-1,5-dihydro-imidazo[2,1-b]quinazolin-2-one]
melting point: 170 °C (dec.)

O=CC(=O)NC1=Nc2ccc(Cl)c(Cl)c2CN1 [Compound#1, N-(5,6-dichloro-3,4-dihydroquinazolin-2-yl)-2-oxoacetamide]
% inhibition (Phosphodiesterase I; 10 μM, percent inhibition of control activity, mean values, n = 2): 26% | inhibition at 10 µM (Phosphodiesterase II (h)): < 10% | inhibition at 10 µM [1]: 97% | IC50 ([1]; average of two separate occasions, read-out: IC50 (average)): 0.9 nM | IC50 ([1]; test compound, assay 1 and assay 2 (two separate occasions), read-out: IC50): 0.69 nM and 1.1 nM | % inhibition (Phosphodiesterase IV (h)): — (The symbol - indicates an inhibition of less than 10%.) | inhibition at 10 µM (Phosphodiesterase V (h)): 64% | inhibition at 10 µM (Phosphodiesterase VI): 89% | (nH) (Phosphodiesterase VI; [3]): (1.0)

O=C1NC2=NCc3c(ccc(Cl)c3Cl)N2C1O (stereo not shown) [Compound#5, (6,7-Dichloro-1-hydroxy-3,5-dihydro-imidazo[1,2-a]quinazolin-2-one)]
(nH) [1, 3]: 0.4

OCCN(CCO)c1nc(N2CCCCC2)c2nc(N(CCO)CCO)nc(N3CCCCC3)c2n1 [dipyridamole, reference compound]
Reference compounds (nH) (Phosphodiesterase V (h); [2]): (1.3)

Cc1[nH]c(=O)c(C#N)cc1-c1ccncc1 [milrinone, reference compound]
Reference compounds (nH) [1, 2]: 0.6
